Measurements reported in article PMC9574929, “Development of Hydrogen Sulfide-Releasing Carbonic Anhydrases IX- and XII-Selective Inhibitors with Enhanced Antihyperalgesic Action in a Rat Model of Arthritis” (Journal of Medicinal Chemistry, 2022).
Read-outs that look alike come from different tables or passages of the source.

What was measured:
hCA IX [1] = target: T1, hCA IX (Homo sapiens, UniProt Q16790); design: made in house; method as in Bonardi et al. [29,30]; details: stopped-flow CO2 hydrase assay; Table S1 footnote b; ref Bonardi et al. [29,30]; cited from earlier work
hCA IV [2] = target: T2, hCA IV (Homo sapiens, UniProt P22748); experiment: Stopped-flow CO2 hydrase assay, hCA IV; details: for SI CA I/IV / SI CA II/IV: selectivity index, ratio of KIs
T2 sequence (P22748 19-312): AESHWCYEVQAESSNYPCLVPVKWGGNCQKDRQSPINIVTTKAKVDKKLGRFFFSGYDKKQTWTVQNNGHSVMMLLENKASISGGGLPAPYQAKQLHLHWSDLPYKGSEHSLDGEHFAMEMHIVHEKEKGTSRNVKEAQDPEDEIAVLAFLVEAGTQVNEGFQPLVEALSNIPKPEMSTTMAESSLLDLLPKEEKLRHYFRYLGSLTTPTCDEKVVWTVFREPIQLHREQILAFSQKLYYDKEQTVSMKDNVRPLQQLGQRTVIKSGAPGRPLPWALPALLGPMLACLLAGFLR
Method: (§3) The uncatalyzed rates were determined in the same manner and subtracted from the total observed rates. Stock solutions of inhibitor (0.1 mM) were prepared in distilled-deionized water and dilutions up to 0.01 nM were done thereafter with the assay buffer. […] The inhibition constants were obtained by nonlinear least-squares methods using PRISM 3 and the Cheng–Prusoff equation, as reported earlier,[39] and represent the mean from at least three different determinations.

hCA II [3] = target: T3, hCA II (Homo sapiens, UniProt P00918); experiment: Stopped-flow CO2 hydrase assay, hCA II; details: for SI CA I/II: selectivity index, ratio of KIs
Method: as §3

hCA IX [4] = target: T1, hCA IX; experiment: Stopped-flow CO2 hydrase assay, hCA IX; details: selectivity index, ratio of KIs
Method: as §3

hCA XII [5] = target: T4, hCA XII (Homo sapiens, UniProt O43570); experiment: Stopped-flow CO2 hydrase assay, hCA XII; details: for SI CA I/XII / SI CA II/XII: selectivity index, ratio of KIs
T4 sequence (O43570 25-354): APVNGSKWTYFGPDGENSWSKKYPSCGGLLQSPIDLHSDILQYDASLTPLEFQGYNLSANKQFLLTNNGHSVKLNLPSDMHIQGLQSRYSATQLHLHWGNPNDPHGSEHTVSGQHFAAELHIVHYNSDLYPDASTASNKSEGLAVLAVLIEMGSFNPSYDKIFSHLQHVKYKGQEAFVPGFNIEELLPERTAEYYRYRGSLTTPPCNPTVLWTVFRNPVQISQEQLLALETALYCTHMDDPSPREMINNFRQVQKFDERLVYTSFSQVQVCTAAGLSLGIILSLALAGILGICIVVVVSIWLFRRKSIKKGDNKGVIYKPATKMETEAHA
Method: as §3

hCA II [6] = target: T3, hCA II; design: made in house; method as in Bonardi et al. [29,30]; details: stopped-flow CO2 hydrase assay; Table S1 footnote b; ref Bonardi et al. [29,30]; cited from earlier work
hCA XII [7] = target: T4, hCA XII; design: made in house; method as in Bonardi et al. [29,30]; details: stopped-flow CO2 hydrase assay; Table S1 footnote b; ref Bonardi et al. [29,30]; cited from earlier work
hCA IV [8] = target: T2, hCA IV; design: made in house; method as in Bonardi et al. [29,30]; details: stopped-flow CO2 hydrase assay; Table S1 footnote b; ref Bonardi et al. [29,30]; cited from earlier work
hCA I [9] = target: T5, hCA I (Homo sapiens, UniProt P00915); design: made in house; method as in Bonardi et al. [29,30]; details: stopped-flow CO2 hydrase assay; Table S1 footnote b; ref Bonardi et al. [29,30]; cited from earlier work
T5 sequence (P00915 whole entry): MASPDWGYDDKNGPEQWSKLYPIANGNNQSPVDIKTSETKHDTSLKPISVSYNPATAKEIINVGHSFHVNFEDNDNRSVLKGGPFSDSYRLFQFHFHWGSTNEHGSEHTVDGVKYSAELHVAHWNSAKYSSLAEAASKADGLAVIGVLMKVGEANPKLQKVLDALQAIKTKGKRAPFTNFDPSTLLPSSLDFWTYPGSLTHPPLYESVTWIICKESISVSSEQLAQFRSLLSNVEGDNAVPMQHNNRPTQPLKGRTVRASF

[10] = test system: rat model of arthritis induced by the intra-articular injection of complete Freund's adjuvant (CFA); experiment: Incapacitance test, CFA-induced arthritis; assay type: in vivo
Method: (§1) Articular damage was induced by injection of Complete Freund’s Adjuvant (CFA; Sigma-Aldrich, St Louis, MO, USA), containing 1 mg/mL of heat-killed and dried Mycobacterium tuberculosis in paraffin oil and mannide monooleate, into the tibiotarsal joint.[50] Briefly, the rats were lightly anesthetized with 2% isoflurane, the left leg skin was sterilized with 75% ethyl alcohol, and the lateral malleolus was located by palpation. A 28-gauge needle was then inserted vertically to penetrate the skin and turned distally for insertion into the articular cavity at the gap between the tibiofibular and tarsal bone until a distinct loss of resistance was felt. A volume of 50 μL of CFA was then injected (day 0). Control rats received 50 μL of saline solution (day 0) in the tibiotarsal joint.
(§2) The hybrid derivatives 26, 29, 30, and 31 (1, 10, and 30 mg/kg) were suspended in a 1% solution of carboxymethylcellulose (CMC) sodium salt and acutely per os administered starting from day 14 after CFA i.a. injection, when arthritis was well established. The H2S releaser 3 and CAI 15 were also administered alone or in coadministration at the equimolar dose of compound 30 30 mg/kg (13.23 and 17.71 mg/kg, respectively). The antihypersensitivity effects were evaluated over time by the Paw pressure and Incapacitance tests.
Weight-bearing changes were measured using an incapacitance apparatus (Linton Instrumentation, Norfolk, U.K.) to detect changes in postural equilibrium after a hind limb injury.[53],[54] Rats were trained to stand on their hind paws in a box with an inclined plane (65° from horizontal). This box was placed above the incapacitance apparatus. This allowed us to independently measure the weight that the animal applied on each hind limb. The value reported for each animal is the mean of five consecutive measurements. In the absence of hind limb injury, rats applied an equal weight on both hind limbs, indicating postural equilibrium, whereas an unequal distribution of weight on the hind limbs indicated a monolateral decreased pain threshold. Data are expressed as the difference between the weight applied to the limb contralateral to the injury and the weight applied to the ipsilateral limb (Δ weight).

hCA I [11] = target: T5, hCA I; experiment: Stopped-flow CO2 hydrase assay, hCA I
Method: as §3

[12] = test system: rat model of arthritis induced by the intra-articular injection of complete Freund's adjuvant (CFA); experiment: Paw pressure test, CFA-induced arthritis; assay type: in vivo
Method: as §1, §2
The nociceptive threshold of rats was determined with an analgesimeter (Ugo Basile, Varese, Italy), according to the method described by Leighton et al.[51] and Maresca et al.,[52] (doi: 10.1111/jphp.12828). Briefly, a constantly increasing pressure was applied to a small area of the dorsal surface of the hind paw using a blunt conical probe by a mechanical device. Mechanical pressure was increased until vocalization or a withdrawal reflex occurred while rats were lightly restrained. Vocalization or withdrawal reflex thresholds were expressed in grams. […]

rats = experiment: Toxicity and Irwin test; assay type: in vivo, rat; design: key to Irwin test: Spontaneous activity / Irwin test: Straightening reflex / Irwin test: Hypo-hyperthermia / Irwin test: Cleaning / Irwin test: Curiosity / Irwin test: Reactivity / Irwin test: Convulsions: observer's semiquantitative score (0 to +4, −4 to 0, or −4 to +4); details: 30 mg/kg
Method: Toxicity was evaluated after a single acute administration of 26, 29, 30, and 31 at 30 mg/kg. […] For the Irwin test, each rat was individually placed in a transparent cage (26 × 41 cm), and 26 neurobehavioral or physiological parameters were systematically assessed according to Irwin (1968)[55] and already reported by Berrino and colleagues in similar studies.[30] Behavioral, autonomic, and neurological manifestations produced by compound administration in rats were evaluated: motor displacement, motor reflexes, stereotypies, grooming, reaction to painful or environmental stimuli (analgesia and irritability), startle response, secretions, excretions, respiratory movements, skin color and temperature, piloerection, exophthalmos, eyelid and corneal reflexes, muscle tone, ataxia, tremors, head twitches, jumps, convulsions, Straub tail, and other signs or symptoms. For postural reflexes (righting reflex) and other signs such as piloerection, exophthalmia (exaggerated protrusion of the eyeball), ataxia, tremors, and Straub tail, only presence or absence was recorded. Skin color was evaluated qualitatively (pale, red, or purple); other signs were evaluated semiquantitatively, according to the observer’s personal scale (0 to +4, −4 to 0, or −4 to +4). The terms sedation and excitation express the final interpretation of a group of signs: reduced motor activity, reduced startle response, eyelid ptosis, and reduced response to manual manipulation, for the former; and increased motor activity, increased startle response, increased response to manual manipulation, and exophthalmia, for the latter. Hyperactivity includes running, jumping, and attempting to escape from the container. Trained observers were not informed about the specific treatment of each animal group carried out in this test.

[13] = per os, 3 13.23 mg/kg, 15 17.71 mg/kg
[14] = S.N.C. excitement, limits 0 - 4

## NS(=O)(=O)c1ccc(CCNCc2ccc([N+](=O)[O-])cc2)cc1 [Compound 10, 4-(2-((4-Nitrobenzyl)amino)ethyl)benzenesulfonamide]
hCA IX [1]
  Ki: 89.2 nM
hCA IV [2]
  SI CA I/IV: 0.1
  SI CA II/IV: 0.07
hCA II [3]
  SI CA I/II: 1.9
hCA IX [4]
  SI CA I/IX: 2.5
  SI CA II/IX: 1.4
hCA XII [5]
  SI CA I/XII: 2.9
  SI CA II/XII: 1.6

## NS(=O)(=O)c1ccc(CCNCc2ccccc2)cc1 [Compound 4, 4-(2-(Benzylamino)ethyl)benzenesulfonamide]
hCA IX [1]
  Ki: 78.1 nM

## NS(=O)(=O)c1ccc(CCNCCc2ccccc2)cc1 [Compound 17, 4-(2-(Phenethylamino)ethyl)benzenesulfonamide]
hCA IX [1]
  Ki: 102 nM
hCA IV [2]
  SI CA II/IV: 0.02
hCA II [3]
  SI CA I/II: 3.1
hCA IX [4]
  SI CA I/IX: 2.7
hCA XII [5]
  SI CA I/XII: 2.6
  SI CA II/XII: 0.9

## N#CCCNCCc1ccc(S(N)(=O)=O)cc1 [Compound 18, 4-(2-((2-Cyanoethyl)amino)ethyl)benzenesulfonamide]
hCA IX [1]
  Ki: 105 nM
hCA II [6]
  Ki: 154 nM
hCA XII [7]
  Ki: 113 nM
hCA IV [2]
  SI CA I/IV: 0.01
  SI CA II/IV: 0.02
hCA II [3]
  SI CA I/II: 0.7
hCA IX [4]
  SI CA I/IX: 1.0
  SI CA II/IX: 1.5
hCA XII [5]
  SI CA I/XII: 0.9
  SI CA II/XII: 1.4
hCA IV [8]
  Ki: 5550 nM
hCA I [9]
  Ki: 105 nM

## NS(=O)(=O)c1ccc(CCNCc2cccc3ccccc23)cc1 [Compound 15, 4-(2-((Naphthalen-1-ylmethyl)amino)ethyl)benzenesulfonamide]
[10]; [13]
  antihyperalgesic effect, Incapacitance test, dose equimolar to 30 30 mg/kg: absence of effects detected in vivo
hCA IV [2]
  Ki: 3010 nM
  SI CA II/IV: 0.06
hCA II [3]
  Ki: 178 nM
  SI CA I/II: 1.5
hCA IX [4]
  SI CA I/IX: 5.8
  SI CA II/IX: 4.0
hCA I [11]
  Ki: 261 nM
hCA XII [5]
  Ki: 54.7 nM
  SI CA I/XII: 4.8
  SI CA II/XII: 3.2
[12]; [13]
  antihyperalgesic effect, Paw pressure test, dose equimolar to 30 30 mg/kg: very weak antihyperalgesic action

## NS(=O)(=O)c1ccc(CCNCc2ccc(F)cc2)cc1 [Compound 5, 4-(2-((4-Fluorobenzyl)amino)ethyl)benzenesulfonamide]
hCA IX [1]
  Ki: 56.5 nM
hCA IV [2]
  SI CA I/IV: 0.09
  SI CA II/IV: 0.06
hCA II [3]
  SI CA I/II: 1.4
hCA IX [4]
  SI CA I/IX: 2.0
  SI CA II/IX: 1.4
hCA XII [5]
  SI CA I/XII: 1.9
  SI CA II/XII: 1.3

## CSc1ccc(CN(CCc2ccc(S(N)(=O)=O)cc2)C(=O)c2ccc(-c3cssc3=S)cc2)cc1 [Compound 29, N-(4-(Methylthio)benzyl)-N-(4-sulfamoylphenethyl)-4-(3-thioxo-3H-1,2-dithiol-4-yl)benzamide]
[10]; single per os, 1 to 30 mg/kg, day 14 after CFA
  reduction of spontaneous pain, Incapacitance test: reduced spontaneous pain in a dose-dependent manner
hCA IV [2]
  SI CA I/IV: 17.9
  SI CA II/IV: 23.9
hCA IX [4]
  SI CA I/IX: 156
  SI CA II/IX: 209
rats; Autonomic signes, limits 0 - 4
  Irwin test: Cyanosis: 0
  Irwin test: Exolphthalmos: 0
  Irwin test: Flush: 0
  Irwin test: Lacrimation: 0
  Irwin test: Pallor: 0
  Irwin test: Piloerection: 0
  Irwin test: Salivation: 0
  Irwin test: Writhing: 0
rats; Autonomic signes, limits 4 - 0
  Irwin test: Palpebral opening: 4
rats; Autonomic signes, limits -4/+4
  Irwin test: Hypo-hyperthermia: 0
rats; Behaviour, limits 0 - 4
  Irwin test: Passivity: 0
  Irwin test: Vocalization: 0
rats; Behaviour, limits 4 - 0
  Irwin test: Cleaning: 0
  Irwin test: Curiosity: 4
  Irwin test: Reactivity: 4
  Irwin test: Spontaneous activity: 4
rats; Movement, limits 0 - 4
  Irwin test: Ataxia: 0
  Irwin test: Stereotipies: 0
rats; Movement, limits 4 - 0
  Irwin test: Straightening reflex: 4
rats; Muscolar tone, limits 4 – 0
  Irwin test: Physical strenght: 4
rats; Reflexes, limits 4 - 0
  Irwin test: Palpebral reflex: 4
rats; [14]
  Irwin test: Straub tail: 0
  Irwin test: Tremors: 0
rats; S.N.C. excitement, limits 4 - 0
  Irwin test: Convulsions: 0
rats; Toxicity, limits 0 - 4
  Irwin test: Delayed death (48 h): 0
  Irwin test: Immediate death: 0
hCA XII [5]
  SI CA I/XII: 858
  SI CA II/XII: 1148
[12]; 1 mg/kg per os
  antihyperalgesic effect, Paw pressure test, 1 mg/kg: ineffective
[12]; 10 and 30 mg/kg per os, from 15 min up to 45 min after treatment, vs CFA-treated animals
  weight tolerated on the ipsilateral paw, Paw pressure test, 10 and 30 mg/kg: significantly increased the weight tolerated
